{"source": "paper PMC6277555", "about": "“Short Symmetric-End Antimicrobial Peptides Centered on β-Turn Amino Acids Unit Improve Selectivity and Stability” (Frontiers in Microbiology, 2018)", "key": {"S. faecalis ATCC 29212": {"test_system": "S. faecalis ATCC 29212", "assay_type": "cell-based, Streptococcus faecalis", "procedure": "(§1) The minimal inhibitory concentration (MIC) was determined according to a previously described method ([Chou et al., 2016]). Bacteria were cultured overnight to mid-log phase in MHB at 37°C and then diluted to give final concentrations ranging from 2 × 10^5 to 7 × 10^5 CFU/mL. Then, 50 μL of serial twofold dilutions of the peptides were added to each well in 96-well microtiter plates with a mixed solution containing 0.01% acetic acid and 0.2% bovine serum albumin (BSA, Sigma) was used to dissolve and dilute the peptides. Then, equal amounts of bacterial aliquots were incubated with the above peptide solution for 18–24 h at 37°C. The experiment was performed in triplicate using three replicates for each peptide and each bacterium. The broth was employed as a negative control and the broth with microbial cells was used as a positive control. The lowest concentration of peptide that prevented visible turbidity was defined as the MIC."}, "[1]": {"test_system": "total genomic DNA from E. coli", "experiment": "DNA binding assay (gel retardation)", "set-up": "species or system Escherichia coli", "details": "1 h", "procedure": "Gel retardation experiments were performed as previously described ([Zhu et al., 2015]). The total genomic DNA from E. coli was extracted using the rapid bacterial genomic DNA isolation kit (Sangon Biotech, China). First, increasing concentrations of peptides were mixed with 400 ng of genomic DNA in 20 μL of binding buffer [5% glycerol, 10 mM Tris-HCl (pH 8.0), 1 mM EDTA, 1 mM dithiothreitol, 20 mM KCl, and 50 μg/mL bovine serum albumin] and incubated at 37°C for 1 h. Next, 4 μL of native loading buffer [10% Ficoll 400, 10 mM Tris-HCl (pH 7.5), 50 mM EDTA, 0.25% bromophenol blue, and 0.25% xylene cyanol] was mixed with the samples and a 12 μL aliquot was subjected to 1% agarose gel electrophoresis in 0.5× Tris borate-EDTA buffer (45 mM Tris-borate and 1 mM EDTA, pH 8.0). Finally, gel retardation was visualized using UVP bioimaging systems."}, "S. aureus ATCC 43300": {"test_system": "S. aureus ATCC 43300", "assay_type": "cell-based, Staphylococcus aureus", "procedure": "as §1"}}, "note": "Residues, ends and D or L forms follow the SMILES beside them.", "data": [{"smiles": "CC[C@H](C)[C@H](N)C(=O)N[C@@H](Cc1c[nH]cn1)C(=O)N[C@@H](CCCCN)C(=O)N[C@@H](Cc1ccccc1)C(=O)N[C@@H](Cc1c[nH]c2ccccc12)C(=O)N[C@@H](CCCNC(=N)N)C(=O)N[C@@H](CS)C(=O)N[C@@H](CCCNC(=N)N)C(=O)N[C@@H](CCCNC(=N)N)C(=O)N[C@@H](CCCNC(=N)N)C(=O)N[C@@H](Cc1ccccc1)C(=O)N[C@@H](CS)C(=O)N[C@@H](CCCNC(=N)N)C(=O)N[C@@H](Cc1c[nH]c2ccccc12)C(=O)N[C@@H](Cc1ccccc1)C(=O)N[C@@H](CCCCN)C(=O)N[C@@H](Cc1c[nH]cn1)C(=O)N[C@H](C(N)=O)[C@@H](C)CC", "note": "[PQ] (H-IHKFWRCRRRFCRWFKHI-NH2; N-terminus assumed)", "values": [{"measurement": "MIC", "setting": "S. faecalis ATCC 29212", "value": 16, "unit": "µM"}, {"measurement": "Concentration showing DNA-binding ability", "setting": "[1]", "value": "> 128", "unit": "µM"}, {"measurement": "MIC", "setting": "S. aureus ATCC 43300", "value": 8, "unit": "µM"}]}]}
